Assay [1] deals with T1, human ETB receptor (Homo sapiens, UniProt P24530).
T1 construct: expressed in transfected cells; host or cells: COS7 cells
T1 sequence (P24530 27-442): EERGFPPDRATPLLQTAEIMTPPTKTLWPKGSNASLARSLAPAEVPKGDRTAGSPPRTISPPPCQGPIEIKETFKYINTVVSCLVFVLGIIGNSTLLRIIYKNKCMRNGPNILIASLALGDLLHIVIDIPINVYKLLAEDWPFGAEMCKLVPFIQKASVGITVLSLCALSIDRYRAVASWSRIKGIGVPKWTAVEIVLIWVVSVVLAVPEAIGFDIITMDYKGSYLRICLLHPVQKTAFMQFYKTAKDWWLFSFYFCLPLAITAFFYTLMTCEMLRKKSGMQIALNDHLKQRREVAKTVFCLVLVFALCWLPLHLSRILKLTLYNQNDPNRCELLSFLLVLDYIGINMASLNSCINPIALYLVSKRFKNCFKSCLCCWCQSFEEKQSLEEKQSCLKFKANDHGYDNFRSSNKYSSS
Put plainly: Binding Test #2: inhibition of 125I-ET-1 binding to ETB receptors (transfected COS7 cell membranes). Conditions: read-out: ETB. An outline of the steps:
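Competition with 125I-ET-1 for binding to membranes from COS7 cells transfected with human ETB receptor, used at 1 μg/50 μl binding buffer. Membranes prepared in HEPES pH 7.4 with aprotinin, including a DNase/MnCl2 step at 37 °C for 30 min.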

Assay [2] concerns the target T2, human ETA receptors (Homo sapiens, UniProt P25101).
T2 construct: endogenous in cells; host or cells: TE 671 cells (ATCC HTB 139)
T2 sequence (P25101 21-427): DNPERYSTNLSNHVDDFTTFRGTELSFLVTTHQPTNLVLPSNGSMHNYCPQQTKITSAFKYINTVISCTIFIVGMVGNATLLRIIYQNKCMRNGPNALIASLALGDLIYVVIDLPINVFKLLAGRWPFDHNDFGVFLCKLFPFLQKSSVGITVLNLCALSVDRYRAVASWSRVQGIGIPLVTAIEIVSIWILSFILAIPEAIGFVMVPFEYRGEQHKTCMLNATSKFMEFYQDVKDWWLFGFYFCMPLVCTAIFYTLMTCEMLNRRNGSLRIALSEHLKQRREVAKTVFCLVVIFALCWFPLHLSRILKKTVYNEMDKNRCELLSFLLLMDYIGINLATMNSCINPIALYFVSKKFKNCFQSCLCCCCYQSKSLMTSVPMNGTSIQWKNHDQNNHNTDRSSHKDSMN
Description: Binding Test #1: inhibition of 125I-ET-1 binding to ETA receptors (TE 671 cell membranes). An outline of the steps:
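Membranes from TE 671 cells (up to 8 μg protein) incubated with ¹²⁵I-ET-1 and compound (1 nM–100 μM final) in 30 mM HEPES pH 7.4, 150 mM NaCl, 5 mM MgCl2, 0.5% bacitracin, 16–18 h at 4 °C or alternatively at 24 °C. Nonspecific binding with 80 nM ET-1; bound pellet gamma-counted, % inhibition calculated, usually triplicate.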

The mark [3] stands for this setting: Table 1, † incubation at 24° C.
[4] abbreviates: Table 1, † incubation at 24° C., read-out: ETA.
Setting [5] is: Table 1, incubation at 4° C., read-out: ETA.

Read-outs that look alike come from different tables or passages of the source.

On to `Cc1noc(NS(=O)(=O)c2ccsc2C(=O)NC(=O)c2ccc3c(c2)OCO3)c1Br` [N-(4-bromo-3-methyl-5-isoxazolyl)-2-[(3,4-methylenedioxy)benzoyl]aminocarbonyl]thiophene-3-sulfonamide], for which the figures for the IC50 in assay [1] (setting [3]) and in assay [2] (setting [4]) were 37000 nM and 89 nM, respectively.
Turning to `Cc1noc(NS(=O)(=O)c2ccsc2C(=O)c2ccc3c(c2)OCO3)c1Br` [N-(4-bromo-3-methyl-5-isoxazolyl)-2-[(3,4-methylenedioxy)benzoyl]thiophene-3-sulfonamide], the figures for the IC50 in assay [1] (setting [3]) and in assay [2] (setting [4]) were 15000 nM and 2000 nM, respectively.
For the molecule `Cc1noc(NS(=O)(=O)c2ccsc2CCc2ccc3c(c2)OCO3)c1Br` [N-(4-bromo-3-methyl-5-isoxazolyl)-2-[(3,4-methylenedioxy)phenethyl]thiophene-3-sulfonamide], the figures for the IC50 in assay [1] (setting [3]) and in assay [2] (setting [4]) were 9200 nM and 210 nM, respectively.
For the molecule `Cc1ccc(NC(=O)c2sccc2S(=O)(=O)Nc2onc(C)c2Br)cc1` [N-(4-bromo-3-methyl-5-isoxazolyl)-2-[-(4-tolulylaminocarbonyl]thiophene-3-sulfonamide], the IC50 in assay [1] (Table 1, incubation at 4° C.) is 1670 nM; in assay [2] (setting [5]), below 10 nM.
For `Cc1noc(NS(=O)(=O)c2ccsc2C(=O)Nc2ccc(C(C)C)cc2)c1Br` [N-(4-bromo-3-methyl-5-isoxazolyl)-2-[N-(4-isopropylphenyl)aminocarbonyl]thiophene-3-sulfonamide] the same measures were 1130 nM and below 10 nM.
For `CCC(C)c1ccc(NC(=O)c2sccc2S(=O)(=O)Nc2onc(C)c2Br)cc1` (stereo not drawn) [N-(4-bromo-3-methyl-5-isoxazolyl)-2-[N-(4-sec-butylphenyl)aminocarbonyl]thiophene-3-sulfonamide] the same measures were 1760 nM and around 8 nM.
For `Cc1noc(NS(=O)(=O)c2ccsc2C/C=C/c2ccc3c(c2)OCO3)c1Br` [N-(4-bromo-3-methyl-5-isoxazolyl)-2-[trans-(3,4-methylenedioxy)cinnamyl]thiophene-3-sulfonamide], the values for the IC50 in assay [1] (setting [3]) and in assay [2] (setting [4]) were 1400 nM and 140 nM, respectively.
For the molecule `Cc1noc(NS(=O)(=O)c2ccccc2-c2ccccc2)c1Br` [N-(4-bromo-3-methyl-5-isoxazolyl)-2-biphenylsulfonamide], the IC50 in assay [1] (Table 2, incubation at 4° C.) is 8540 nM; in assay [2] (Table 2, incubation at 4° C., read-out: ETA) it was 1.27 nM; in assay [2] (read-out: IC50 for ETA receptors), around 1.6 nM.
For the molecule `CCCCc1sc2ccccc2c1S(=O)(=O)Nc1onc(C)c1Br` [N-(4-bromo-3-methyl-5-isoxazolyl)-2-butylbenzo[b]thiophene-3-sulfonamide], the IC50 was around 3000 nM in assay [1] (Table 1, incubation at 4° C.) and 22.6 nM in assay [2] (setting [5]).
For `Cc1noc(NS(=O)(=O)c2c(C(=O)O)n(C)c3ccccc23)c1Br` [N-(4-bromo-3-methyl-5-isoxazolyl)-2-carboxyl-1-methylidole-3-sulfonamide], the IC50 in assay [1] (setting [3]) was found to be 104000 nM; in assay [2] (setting [4]), 590 nM.
For the molecule `CCc1sc2ccc(C)cc2c1S(=O)(=O)Nc1onc(C)c1Br` [N-(4-bromo-3-methyl-5-isoxazolyl)-2-ethyl-5-methylbenzo[b]thiophene-3-sulfonamide], the IC50 in assay [1] (setting [3]) amounted to 54300 ± 2600 nM; in assay [2] (setting [4]), 1890 ± 431 nM.
Take `CCc1sc2ccccc2c1S(=O)(=O)Nc1onc(C)c1Br` [N-(4-bromo-3-methyl-5-isoxazolyl)-2-ethylbenzo[b]thiophene-3-sulfonamide]: the IC50 in assay [1] (Table 1, incubation at 4° C.) was 5130 nM; in assay [2] (setting [5]), 6.7 nM.
Turning to `Cc1noc(NS(=O)(=O)c2c(C(C)C)sc3ccccc23)c1Br` [N-(4-bromo-3-methyl-5-isoxazolyl)-2-i-propylbenzo[b]thiophene-3-sulfonamide], the IC50 stood at 5700 nM in assay [1] (Table 1, incubation at 4° C.); 10700 nM in assay [1] (setting [3]); 5 nM in assay [2] (setting [5]); 30 nM in assay [2] (setting [4]).
For the molecule `Cc1noc(NS(=O)(=O)c2c(C)sc3ccccc23)c1Br` [N-(4-bromo-3-methyl-5-isoxazolyl)-2-methylbenzo[b]thiophene-3-sulfonamide], the IC50 in assay [1] (Table 1, incubation at 4° C.) stood at 3500 nM; in assay [2] (setting [5]) it was 48.6 nM.
For `Cc1noc(NS(=O)(=O)c2c(Cc3ccccc3)sc3ccccc23)c1Br` [N-(4-bromo-3-methyl-5-isoxazolyl)-2-n-benzylbenzo[b]thiophene-3-sulfonamide] the same measures were around 1000 nM and 18.2 nM.
Consider `CCCc1sc2ccccc2c1S(=O)(=O)Nc1onc(C)c1Br` [N-(4-bromo-3-methyl-5-isoxazolyl)-2-n-propylbenzo[b]thiophene-3-sulfonamide], for which the IC50 in assay [1] (Table 1, incubation at 4° C.) worked out at 7950 nM; in assay [1] (setting [3]) it was 16600 nM; in assay [2] (setting [5]), 24 nM; in assay [2] (setting [4]) it was 74 nM.
`Cc1noc(NS(=O)(=O)c2ccsc2COc2ccc3c(c2)OCO3)c1Br` [N-(4-bromo-3-methyl-5-isoxazolyl)-2-{[3,4-(methylenedioxy)phenoxy]methyl}thiophene-3-sulfonamide]: the values for the IC50 in assay [1] (setting [3]) and in assay [2] (setting [4]) were 6610 nM and 302 nM, respectively.
For `Cc1ccc(/C=C/c2cc(-c3ccc(C)cc3)sc2S(=O)(=O)Nc2onc(C)c2Br)cc1` [N-(4-bromo-3-methyl-5-isoxazolyl)-3-(4-methyl-trans-styryl)-5-(4-tolyl)thiophene-2-sulfonamide] the same measures were 1580 nM and 6900 nM.
Taken in the same sequence, the figures for `Cc1ccc(Cc2cc(-c3ccc(C)cc3)sc2S(=O)(=O)Nc2onc(C)c2Br)cc1` [N-(4-bromo-3-methyl-5-isoxazolyl)-3-(4-methylbenzyl)-5-(4-tolyl)thiophene-2-sulfonamide] were 1560 nM and 4690 nM.
As to `Cc1ccc(CCc2cc(-c3ccc(C)cc3)sc2S(=O)(=O)Nc2onc(C)c2Br)cc1` [N-(4-bromo-3-methyl-5-isoxazolyl)-3-(4-methylphenethyl)-5-(4-tolyl)thiophene-2-sulfonamide], the IC50 is 2090 nM in assay [1] (setting [3]) and 6100 nM in assay [2] (setting [4]).
As to `Cc1noc(NS(=O)(=O)c2sccc2CCc2ccccc2)c1Br` [N-(4-bromo-3-methyl-5-isoxazolyl)-3-(phenethyl)thiophene-2-sulfonamide], the IC50 came to 10800 nM in assay [1] (Table 1, incubation at 4° C.); 37200 nM in assay [1] (setting [3]); 160 nM in assay [2] (setting [5]); 676 nM in assay [2] (setting [4]).
As to `Cc1noc(NS(=O)(=O)c2sccc2Sc2ccccc2)c1Br` [N-(4-bromo-3-methyl-5-isoxazolyl)-3-(phenylthio)thiophene-2-sulfonamide], the IC50 turned out to be 3680 nM in assay [1] (setting [3]) and 80.1 nM in assay [2] (setting [4]).
For the molecule `Cc1noc(NS(=O)(=O)c2sccc2CC=Cc2cc3c(cc2CO)OCO3)c1Br` [N-(4-bromo-3-methyl-5-isoxazolyl)-3-[2-(hydroxymethyl)-4,5-(methylenedioxy)cinnamyl]thiophene-2-sulfonamide], the IC50 amounted to 3240 nM in assay [1] (setting [3]) and 79.5 nM in assay [2] (setting [4]).
Regarding `Cc1cc2c(cc1C=CCc1ccsc1S(=O)(=O)Nc1onc(C)c1Br)OCO2` [N-(4-bromo-3-methyl-5-isoxazolyl)-3-[2-methyl-4,5-(methylenedioxy)cinnamyl]thiophene-2-sulfonamide], the IC50 in assay [1] (setting [3]) is around 6000 nM; in assay [2] (setting [4]), around 100 nM.
On to `Cc1cc2c(cc1CCc1ccsc1S(=O)(=O)Nc1onc(C)c1Br)OCO2` [N-(4-bromo-3-methyl-5-isoxazolyl)-3-[2-methyl-4,5-(methylenedioxy)phenethyl]thiophene-2-sulfonamide], for which the IC50 in assay [1] (setting [3]) was around 5000 nM; in assay [2] (setting [4]) it was around 100 nM.
